Laboratory results published in patent US20060069132A1, “Azolecarboxamide herbicides” (priority 2004, published 2006).

Key:
large crabgrass = experiment: Test C pre-/postemergence herbicide test; assay type: in vivo, Digitaria sanguinalis; conditions: preemergence
Outline: (§1)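 Pre- and postemergence application, solvent/surfactant formulation; post at 1- to 4-leaf stage (2–18 cm). Greenhouse 12–14 d. Visual rating vs controls, 0 = no effect, 100 = complete control.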

woolly cupgrass = experiment: Test C pre-/postemergence herbicide test; assay type: in vivo, Eriochloa villosa; conditions: preemergence
Outline: as §1

lambsquarters = experiment: Test C pre-/postemergence herbicide test; assay type: in vivo, Chenopodium album; conditions: preemergence
Outline: as §1

pigweed = experiment: Test C pre-/postemergence herbicide test; assay type: in vivo, Amaranthus retroflexus; conditions: preemergence
Outline: as §1

giant foxtail = experiment: Test C pre-/postemergence herbicide test; assay type: in vivo, Setaria faberi; conditions: preemergence
Outline: as §1

[1] = tested on: common (oilseed) sunflower; experiment: Test C pre-/postemergence herbicide test; assay type: in vivo, Helianthus annuus; conditions: preemergence
Outline: as §1

[2] = tested on: smallflower umbrella sedge; experiment: Test C flooded paddy test; assay type: in vivo, Cyperus difformis
rice = experiment: Test C flooded paddy test; assay type: in vivo, Oryza sativa
Outline: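 Injury scored visually against controls on a 0 (no effect) to 100 (complete control) scale, 12 to 14 days after treatment in greenhouse. Flooded paddy plants treated at 2-leaf stage; postemergence plants at 1- to 4-leaf stage, 2 to 18 cm tall.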

velvetleaf = experiment: Test A pre-/postemergence herbicide test; assay type: in vivo, Abutilon theophrasti
Outline: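 Visual injury rating on a 0–100 scale (0 no effect, 100 complete control) versus untreated controls, about ten days after treatment in greenhouse. Pre: directed soil spray onto seeded sandy loam. Post: spray to runoff on plants 2–10 cm tall at one- to two-leaf stage.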

[3] = 500 g ai/ha, scale 0 to 100 (0 no effect, 100 complete control), visual, 12 to 14 days
[4] = 125 g ai/ha, scale 0 to 100 (0 no effect, 100 complete control)
[5] = 250 g ai/ha, scale of 0 to 100, 0 is no effect, 100 is complete control
[6] = 500 g ai/ha, visual rating after 12 to 14 days, scale 0 to 100 (0 no effect, 100 complete control)
[7] = 125 g ai/ha, scale 0 (no effect) to 100 (complete control), visual, 12 to 14 days
[8] = 250 g ai/ha, scale 0 to 100 (0 no effect, 100 complete control), visual, 12 to 14 days
[9] = Postemergence, 500 g ai/ha, 0 to 100 scale, 0 no effect, 100 complete control
[10] = Postemergence, 2000 g ai/ha, 0 to 100 scale, 0 no effect, 100 complete control

For `CCC1=NN(C(C)(C)C)CC1C(=O)Nc1cc(C(=O)N(C)CC)ccc1F` (racemic) [Compound 342], the “Plant response rating, Crabgrass, Large” value (large crabgrass; 62 g ai/ha, scale 0 to 100) was 60, the “Plant response rating (0 = no effect, 100 = complete control), Crabgrass, Large” value (large crabgrass; 125 g ai/ha) was 60 and the “Plant response rating, Crabgrass, Large” value (large crabgrass; 250 g ai/ha, scale 0-100) was 70. The “Plant response rating, Crabgrass, Large” value (large crabgrass; [3]) was 85, the “Plant response rating, Cupgrass, Woolly” value (woolly cupgrass; 62 g ai/ha, scale 0 to 100) was 10 and the “Plant response rating (0 = no effect, 100 = complete control), Cupgrass, Woolly” value (woolly cupgrass; 125 g ai/ha) was 40. For the same molecule, the “Plant response rating, Cupgrass, Woolly” value (woolly cupgrass; 250 g ai/ha, scale 0-100) was 50, the “Plant response rating, Cupgrass, Woolly” value (woolly cupgrass; [3]) was 70 and the “Plant response rating, Lambsquarters” value (lambsquarters; 62 g ai/ha, scale 0 to 100) was 70. The “Plant response rating (0 = no effect, 100 = complete control), Lambsquarters” value (lambsquarters; 125 g ai/ha) was 90, the “Plant response rating, Lambsquarters” value (lambsquarters; 250 g ai/ha, scale 0-100) was 100 and the “Plant response rating, Lambsquarters” value (lambsquarters; [3]) was 100. The “Plant response rating, Pigweed” value (pigweed; 62 g ai/ha, scale 0 to 100) was 80, the “Plant response rating (0 = no effect, 100 = complete control), Pigweed” value (pigweed; 125 g ai/ha) was 90 and the “Plant response rating, Pigweed” value (pigweed; 250 g ai/ha, scale 0-100) was 100. For the same molecule, the “Plant response rating, Pigweed” value (pigweed; [3]) was 100, the “Plant response rating, Foxtail, Giant” value (giant foxtail; 62 g ai/ha, scale 0 to 100) was 0 and the “Plant response rating (0 = no effect, 100 = complete control), Foxtail, Giant” value (giant foxtail; 125 g ai/ha) was 40. For the same molecule, the “Plant response rating, Foxtail, Giant” value (giant foxtail; 250 g ai/ha, scale 0-100) was 55, the “Plant response rating, Foxtail, Giant” value (giant foxtail; [3]) was 70 and the “Plant response rating, Sunflower” value ([1]; 62 g ai/ha, scale 0 to 100) was 5. For the same molecule, the “Plant response rating (0 = no effect, 100 = complete control), Sunflower” value ([1]; 125 g ai/ha) was 20, the “Plant response rating, Sunflower” value ([1]; 250 g ai/ha, scale 0-100) was 75 and the “Plant response rating, Sunflower” value [1, 3] was 100. The “Sedge, Umbrella plant response rating” value ([2]; 62 g ai/ha, scale 0 to 100) was 40, the “Sedge, Umbrella plant response rating” value [2, 4] was 50 and the “Sedge, Umbrella plant response rating” value [2, 5] was 70. For the same molecule, the “Plant response rating, Sedge, Umbrella” value [2, 6] was 80, the “Rice plant response rating” value (rice; 62 g ai/ha, scale 0 to 100) was 20 and the “Rice plant response rating” value (rice; [4]) was 30. The “Rice plant response rating” value (rice; [5]) was 60 and the “Plant response rating, Rice” value (rice; [6]) was 80.

`CCCCn1nc(C(C)(C)C)cc1C(=O)Nc1cccc(C(=O)NCC)c1` [Compound 41] was tested, and the “Plant response rating, Crabgrass, Large” value (large crabgrass; 31 g ai/ha, scale 0 to 100) was 0, the “Plant response rating (0 = no effect, 100 = complete control), Crabgrass, Large” value (large crabgrass; 62 g ai/ha) was 90 and the “Plant response rating, Crabgrass, Large” value (large crabgrass; [7]) was 100. The “Plant response rating, Crabgrass, Large” value (large crabgrass; [8]) was 100, the “Plant response rating, Velvetleaf” value (velvetleaf; [9]) was 25 and the “Plant response rating, Velvetleaf” value (velvetleaf; [10]) was 25. For the same molecule, the “Velvetleaf plant response rating” value (velvetleaf; Preemergence, 500 g ai/ha, visual rating, 0 to 100 scale (0 no effect, 100 complete control)) was 25, the “Velvetleaf plant response rating” value (velvetleaf; Preemergence, 2000 g ai/ha, 0 to 100 scale, 0 no effect, 100 complete control) was 40 and the “Plant response rating, Cupgrass, Woolly” value (woolly cupgrass; 31 g ai/ha, scale 0 to 100) was 0. The “Plant response rating (0 = no effect, 100 = complete control), Cupgrass, Woolly” value (woolly cupgrass; 62 g ai/ha) was 0, the “Plant response rating, Cupgrass, Woolly” value (woolly cupgrass; [7]) was 0 and the “Plant response rating, Cupgrass, Woolly” value (woolly cupgrass; [8]) was 30. The “Plant response rating, Lambsquarters” value (lambsquarters; 31 g ai/ha, scale 0 to 100) was 0, the “Plant response rating (0 = no effect, 100 = complete control), Lambsquarters” value (lambsquarters; 62 g ai/ha) was 50 and the “Plant response rating, Lambsquarters” value (lambsquarters; [7]) was 90. For the same molecule, the “Plant response rating, Lambsquarters” value (lambsquarters; [8]) was 100, the “Plant response rating, Pigweed” value (pigweed; 31 g ai/ha, scale 0 to 100) was 0 and the “Plant response rating (0 = no effect, 100 = complete control), Pigweed” value (pigweed; 62 g ai/ha) was 0. For the same molecule, the “Plant response rating, Pigweed” value (pigweed; [7]) was 90, the “Plant response rating, Pigweed” value (pigweed; [8]) was 100 and the “Plant response rating, Foxtail, Giant” value (giant foxtail; 31 g ai/ha, scale 0 to 100) was 0. For the same molecule, the “Plant response rating (0 = no effect, 100 = complete control), Foxtail, Giant” value (giant foxtail; 62 g ai/ha) was 20, the “Plant response rating, Foxtail, Giant” value (giant foxtail; [7]) was 20 and the “Plant response rating, Foxtail, Giant” value (giant foxtail; [8]) was 30. For the same molecule, the “Plant response rating, Sunflower” value ([1]; 31 g ai/ha, scale 0 to 100) was 0, the “Plant response rating (0 = no effect, 100 = complete control), Sunflower” value ([1]; 62 g ai/ha) was 0 and the “Plant response rating, Sunflower” value [1, 7] was 0. For the same molecule, the “Plant response rating, Sunflower” value [1, 8] was 0.

With `CCc1nn(C(C)(C)C)nc1C(=O)Nc1cccc(C(=O)NC2CC2)c1` [Compound 417] the “Plant response rating, Crabgrass, Large” value (large crabgrass; 62 g ai/ha, scale 0 to 100) was 100, the “Plant response rating (0 = no effect, 100 = complete control), Crabgrass, Large” value (large crabgrass; 125 g ai/ha) was 100 and the “Plant response rating, Crabgrass, Large” value (large crabgrass; 250 g ai/ha, scale 0-100) was 100. For the same molecule, the “Plant response rating, Crabgrass, Large” value (large crabgrass; [3]) was 100, the “Velvetleaf plant response rating” value (velvetleaf; [9]) was 60 and the “Plant response rating, Velvetleaf” value (velvetleaf; [10]) was 90. The “Velvetleaf plant response rating” value (velvetleaf; Preemergence, 2000 g ai/ha, visual rating, 0 to 100 scale (0 no effect, 100 complete control)) was 70, the “Velvetleaf plant response rating” value (velvetleaf; preemergence, 500 g ai/ha, visual injury, 0 to 100 scale (0 no effect, 100 complete control)) was 55 and the “Plant response rating, Cupgrass, Woolly” value (woolly cupgrass; 62 g ai/ha, scale 0 to 100) was 0. The “Plant response rating (0 = no effect, 100 = complete control), Cupgrass, Woolly” value (woolly cupgrass; 125 g ai/ha) was 20, the “Plant response rating, Cupgrass, Woolly” value (woolly cupgrass; 250 g ai/ha, scale 0-100) was 65 and the “Plant response rating, Cupgrass, Woolly” value (woolly cupgrass; [3]) was 85. The “Plant response rating, Lambsquarters” value (lambsquarters; 62 g ai/ha, scale 0 to 100) was 95, the “Plant response rating (0 = no effect, 100 = complete control), Lambsquarters” value (lambsquarters; 125 g ai/ha) was 100 and the “Plant response rating, Lambsquarters” value (lambsquarters; 250 g ai/ha, scale 0-100) was 100. For the same molecule, the “Plant response rating, Lambsquarters” value (lambsquarters; [3]) was 100, the “Plant response rating, Pigweed” value (pigweed; 62 g ai/ha, scale 0 to 100) was 100 and the “Plant response rating (0 = no effect, 100 = complete control), Pigweed” value (pigweed; 125 g ai/ha) was 100. The “Plant response rating, Pigweed” value (pigweed; [3]) was 100, the “Plant response rating, Foxtail, Giant” value (giant foxtail; 62 g ai/ha, scale 0 to 100) was 65 and the “Plant response rating (0 = no effect, 100 = complete control), Foxtail, Giant” value (giant foxtail; 125 g ai/ha) was 90. For the same molecule, the “Plant response rating, Foxtail, Giant” value (giant foxtail; 250 g ai/ha, scale 0-100) was 95, the “Plant response rating, Foxtail, Giant” value (giant foxtail; [3]) was 100 and the “Plant response rating, Sunflower” value ([1]; 62 g ai/ha, scale 0 to 100) was 0. The “Plant response rating (0 = no effect, 100 = complete control), Sunflower” value ([1]; 125 g ai/ha) was 0 and the “Plant response rating, Sunflower” value [1, 3] was 0.
